This is an account of results in US20240336642A1 (The General Hospital Corporation, priority 2021, published 2024).

The term pIC50 denotes the negative decadic logarithm of the IC50, by convention in mol/L. For orientation: microsomal CLint means the rate of metabolic loss divided by the concentration. Read a high microsomal CLint as faster metabolism.

pIC50: −log10 of the molar value.

Data set [1] is described as follows: Aqueous solubility of exemplified compounds (Example 3). The settings on record: aqueous solubility. Format: physicochemical.
The next data set concerns the target h12/15-LOX (Homo sapiens (Human), UniProt P16050). Nature of the data set: 12/15-LOX enzyme inhibition IC50 assay (Examples 1 and 2). Format: biochemical. Conditions: for Emax: read-out: Max % inhibition. The procedure: Enzyme was then added to the cuvettes. […] The % inhibition for each test compound concentration were calculated as follows: […]
The nature of data set [2]: Metabolic stability of exemplified compounds (Example 4). Format: in vitro ADME.

h12/15-LOX, sequence (P16050 whole entry): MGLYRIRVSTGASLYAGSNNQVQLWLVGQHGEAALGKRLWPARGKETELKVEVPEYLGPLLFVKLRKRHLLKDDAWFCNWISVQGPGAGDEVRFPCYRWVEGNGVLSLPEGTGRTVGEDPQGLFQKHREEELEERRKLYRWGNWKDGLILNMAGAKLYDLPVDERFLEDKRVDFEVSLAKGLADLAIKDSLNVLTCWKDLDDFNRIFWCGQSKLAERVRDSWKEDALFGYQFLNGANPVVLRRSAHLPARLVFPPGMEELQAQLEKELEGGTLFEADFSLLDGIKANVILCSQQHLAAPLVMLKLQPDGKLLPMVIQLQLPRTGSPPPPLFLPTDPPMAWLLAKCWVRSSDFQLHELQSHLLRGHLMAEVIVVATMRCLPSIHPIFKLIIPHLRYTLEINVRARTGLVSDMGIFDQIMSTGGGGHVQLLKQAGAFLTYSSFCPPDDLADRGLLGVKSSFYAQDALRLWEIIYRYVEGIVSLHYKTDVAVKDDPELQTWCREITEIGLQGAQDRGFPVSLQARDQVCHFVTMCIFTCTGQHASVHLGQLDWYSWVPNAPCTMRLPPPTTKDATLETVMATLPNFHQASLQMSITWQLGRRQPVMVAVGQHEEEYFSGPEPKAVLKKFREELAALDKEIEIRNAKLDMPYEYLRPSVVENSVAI

With `COCC/C=C/CNc1oc(-c2cc(Cl)cc(Cl)c2Cl)nc1C#N` [Compound 46, (E)-5-((5-Methoxypent-2-en-1-yl)amino)-2-(2,3,5-trichlorophenyl)oxazole-4-carbonitrile], in data set [1], the Sol result is reported as “+ (“+” < 10 μM)”. The compound further gave a negative-log IC50 (pIC50) against h12/15-LOX of 6.68. The Emax on h12/15-LOX (h12/15-LOX) worked out at 95%. The “Extr (EH)” value in data set [2] (Human liver microsomes), in data set [2] (Mouse liver microsomes) and in data set [2] (Rat liver microsomes) was “** (“**” 50-100%)” each time. For the same compound, the microsomal CLint is 20 to 100 µL/min/mg in data set [2] (Human liver microsomes), 100 to 200 µL/min/mg in data set [2] (Mouse liver microsomes) and 20 to 100 µL/min/mg in data set [2] (Rat liver microsomes).
Consider `COC/C=C/CNc1oc(-c2cc(Cl)cc(Cl)c2Cl)nc1C#N` [Compound 45, (E)-5-((4-Methoxybut-2-en-1-yl)amino)-2-(2,3,5-trichlorophenyl)oxazole-4-carbonitrile], for which the Sol entry in data set [1] was “+ (“+” < 10 μM)”. The compound further showed a pIC50 on h12/15-LOX of 6.72. On h12/15-LOX (h12/15-LOX), the Emax is 98%. Besides, the “Extr (EH)” value in data set [2] (Human liver microsomes), in data set [2] (Mouse liver microsomes) and in data set [2] (Rat liver microsomes) was “** (“**” 50-100%)” each time. The microsomal CLint is 20 to 100 µL/min/mg in data set [2] (Human liver microsomes), 100 to 200 µL/min/mg in data set [2] (Mouse liver microsomes) and 20 to 100 µL/min/mg in data set [2] (Rat liver microsomes).
Take `N#Cc1nc(-c2cc(Cl)cc(Cl)c2Cl)oc1NC/C=C/COCc1ccccc1` [Compound 47, (E)-5-((4-(Benzyloxy)but-2-en-1-yl)amino)-2-(2,3,5-trichlorophenyl)oxazole-4-carbonitrile]: the Sol entry in data set [1] was “+ (“+” < 10 μM)”. In addition, at h12/15-LOX, the pIC50 is 6.64. The Emax at h12/15-LOX (h12/15-LOX) was found to be 98%. The “Extr (EH)” value in data set [2] (Human liver microsomes), in data set [2] (Mouse liver microsomes) and in data set [2] (Rat liver microsomes) was “** (“**” 50-100%)” in each case. Besides, the microsomal CLint in data set [2] (Human liver microsomes), in data set [2] (Mouse liver microsomes) and in data set [2] (Rat liver microsomes) was 100 to 200 µL/min/mg in each case.
For `N#Cc1nc(-c2cc(Cl)cc(Cl)c2Cl)oc1NCCCCO` [Compound 17, 5-((4-Hydroxybutyl)amino)-2-(2,3,5-trichlorophenyl)oxazole-4-carbonitrile], the Sol result in data set [1] is recorded as “++ (“++” 10-20 μM)”. Moreover, at h12/15-LOX, the pIC50 is 5.72. Besides, the Emax on h12/15-LOX (h12/15-LOX) is 100%. Besides, the “Extr (EH)” value in data set [2] (Human liver microsomes), in data set [2] (Mouse liver microsomes) and in data set [2] (Rat liver microsomes) was “* (“*” <50%)” in each case. For the same compound, the microsomal CLint in data set [2] (Human liver microsomes), in data set [2] (Mouse liver microsomes) and in data set [2] (Rat liver microsomes) was below 20 µL/min/mg in each case.
Regarding `N#Cc1nc(-c2cc(Cl)cc(Cl)c2Cl)oc1NCC#CCOCc1ccccc1` [Compound 43, 5-((4-(Benzyloxy)but-2-yn-1-yl)amino)-2-(2,3,5-trichlorophenyl)oxazole-4-carbonitrile], the Sol entry in data set [1] is reported as “+ (“+” < 10 μM)”. Moreover, at h12/15-LOX, the pIC50 was 6.64. Besides, the Emax on h12/15-LOX (h12/15-LOX) was found to be 93%. Also, the “Extr (EH)” value in data set [2] (Human liver microsomes), in data set [2] (Mouse liver microsomes) and in data set [2] (Rat liver microsomes) was “** (“**” 50-100%)” each time. In addition, the microsomal CLint lay in the range of 100 to 200 µL/min/mg in data set [2] (Human liver microsomes), 20 to 100 µL/min/mg in data set [2] (Mouse liver microsomes) and 20 to 100 µL/min/mg in data set [2] (Rat liver microsomes).
For the compound `COCCOCCOCCNc1oc(-c2cc(Cl)cc(Cl)c2Cl)nc1C#N` [Compound 50, 5-((2-(2-(2-Methoxyethoxy)ethoxy)ethyl)amino)-2-(2,3,5-trichlorophenyl)oxazole-4-carbonitrile], the Sol result in data set [1] is on record as “+++ (“+++” 20-50 μM)”. This compound showed a pIC50 on h12/15-LOX of 6.05. Moreover, the Max % inhibition at h12/15-LOX (h12/15-LOX) is 99%. In addition, the CLint entry in data set [2] (Human liver microsomes), in data set [2] (Mouse liver microsomes) and in data set [2] (Rat liver microsomes) was “++ (“++” 20-100 μL/min/mg)” in each case. Also, the “Extr (EH)” value in data set [2] (Human liver microsomes), in data set [2] (Mouse liver microsomes) and in data set [2] (Rat liver microsomes) was “** (“**” 50-100%)” in each case.
Take `N#Cc1nc(-c2cc(Cl)cc(Cl)c2Cl)oc1NCCCCCO` [Compound 22, 5-((5-Hydroxypentyl)amino)-2-(2,3,5-trichlorophenyl)oxazole-4-carbonitrile]: the Sol result in data set [1] is reported as “+ (“+” < 10 μM)”. On h12/15-LOX, this compound gave a pIC50 of 6.29. For the same compound, the Emax on h12/15-LOX (h12/15-LOX) was determined as 82%. The “Extr (EH)” value is “** (“**” 50-100%)” in data set [2] (Human liver microsomes), “* (“*” <50%)” in data set [2] (Mouse liver microsomes) and “* (“*” <50%)” in data set [2] (Rat liver microsomes). The microsomal CLint was 20 to 100 µL/min/mg in data set [2] (Human liver microsomes), below 20 µL/min/mg in data set [2] (Mouse liver microsomes) and 20 to 100 µL/min/mg in data set [2] (Rat liver microsomes).
On to `COCCNc1oc(-c2cc(Cl)cc(Cl)c2Cl)nc1C#N` [Compound 39, 5-((2-Methoxyethyl)amino)-2-(2,3,5-trichlorophenyl)oxazole-4-carbonitrile], for which the Sol entry in data set [1] was “+ (“+” < 10 μM)”. At h12/15-LOX, this compound showed a pIC50 of 6.43. Besides, on h12/15-LOX (h12/15-LOX), the Emax turned out to be 100%. Also, the “Extr (EH)” value in data set [2] (Human liver microsomes), in data set [2] (Mouse liver microsomes) and in data set [2] (Rat liver microsomes) was “** (“**” 50-100%)” throughout. In addition, the microsomal CLint in data set [2] (Human liver microsomes) is 20 to 100 µL/min/mg; in data set [2] (Mouse liver microsomes), 100 to 200 µL/min/mg; in data set [2] (Rat liver microsomes) it was 20 to 100 µL/min/mg.
Take `N#Cc1nc(-c2cc(Cl)cc(Cl)c2Cl)oc1NCCCO` [Compound 16, 5-((3-Hydroxypropyl)amino)-2-(2,3,5-trichlorophenyl)oxazole-4-carbonitrile]: the Sol entry in data set [1] is listed as “+++ (“+++” 20-50 μM)”. The pIC50 on h12/15-LOX is 5.37. In addition, the Emax on h12/15-LOX (h12/15-LOX) is 100%. The entries for the “Extr (EH)” value in data set [2] (Human liver microsomes), in data set [2] (Mouse liver microsomes) and in data set [2] (Rat liver microsomes) were “* (“*” <50%)”, “** (“**” 50-100%)” and “* (“*” <50%)”, respectively. Further, the microsomal CLint is below 20 µL/min/mg in data set [2] (Human liver microsomes), 100 to 200 µL/min/mg in data set [2] (Mouse liver microsomes) and 20 to 100 µL/min/mg in data set [2] (Rat liver microsomes).
For `CC(C)OCCOCCNc1oc(-c2cc(Cl)cc(Cl)c2Cl)nc1C#N` [Compound 49, 5-((2-(2-Isopropoxyethoxy)ethyl)amino)-2-(2,3,5-trichlorophenyl)oxazole-4-carbonitrile], in data set [1], the Sol result is reported as “+ (“+” < 10 μM)”. For the same compound, the pIC50 against h12/15-LOX was 6.18. In addition, the Emax at h12/15-LOX (h12/15-LOX) was found to be 95%. The entries for the “Extr (EH)” value in data set [2] (Human liver microsomes), in data set [2] (Mouse liver microsomes) and in data set [2] (Rat liver microsomes) were “* (“*” <50%)”, “** (“**” 50-100%)” and “** (“**” 50-100%)”, respectively. Besides, the microsomal CLint in data set [2] (Human liver microsomes) was below 20 µL/min/mg; in data set [2] (Mouse liver microsomes), 20 to 100 µL/min/mg; in data set [2] (Rat liver microsomes) it was 20 to 100 µL/min/mg.
On h12/15-LOX, `N#Cc1nc(-c2cc(Cl)cc(Cl)c2Cl)oc1NCCOCCN1CCC(F)C1` (stereo not drawn) [Compound 78, 5-((2-(2-(3-Fluoropyrrolidin-1-yl)ethoxy)ethyl)amino)-2-(2,3,5-trichlorophenyl)oxazole-4-carbonitrile] had a pIC50 below 4.70. At h12/15-LOX (h12/15-LOX), the Emax was found to be 49%.
The corresponding values for `CNc1oc(-c2cc(F)cc(Cl)c2Cl)nc1C#N` [Compound 11, 2-(2,3-Dichloro-5-fluorophenyl)-5-(methylamino)oxazole-4-carbonitrile] are 6.06 and 93%.
For `CNc1oc(-c2cc(Cl)cc(Cl)c2OC)nc1C#N` [Compound 5, 2-(3,5-Dichloro-2-methoxyphenyl)-5-(methylamino)oxazole-4-carbonitrile] the same measures were 6.74 and 92%.
`N#Cc1nc(-c2cc(Cl)cc(Cl)c2Cl)oc1NCCOCCOCCF` [Compound 70, 5-((2-(2-(2-Fluoroethoxy)ethoxy)ethyl)amino)-2-(2,3,5-trichlorophenyl)oxazole-4-carbonitrile] showed a pIC50 at h12/15-LOX of 5.96. Further, the Emax at h12/15-LOX (h12/15-LOX) came to 110%.
On to `CNc1oc(-c2cc(Cl)cc(OC)c2Cl)nc1C#N` [Compound 9], for which, at h12/15-LOX (h12/15-LOX), the Emax was determined as 71%.
The compound `N#Cc1nc(-c2cc(Cl)cc(Cl)c2Cl)oc1NCCOCCN1CCCC(F)(F)C1` [Compound 75, 5-((2-(2-(3,3-Difluoropiperidin-1-yl)ethoxy)ethyl)amino)-2-(2,3,5-trichlorophenyl)oxazole-4-carbonitrile] gave a pIC50 on h12/15-LOX of 5.96. On h12/15-LOX (h12/15-LOX), the Emax is 61%.
For `CN(CCF)CCOCCNc1oc(-c2cc(Cl)cc(Cl)c2Cl)nc1C#N` [Compound 96, 5-((2-(2-((2-Fluoroethyl)(methyl)amino)ethoxy)ethyl)amino)-2-(2,3,5-trichlorophenyl)oxazole-4-carbonitrile] the same measures were 5.36 and 93%.
With `COCCOc1ccc(COCC#CCNc2oc(-c3cc(Cl)cc(Cl)c3Cl)nc2C#N)cc1` [Compound 85], the Emax on h12/15-LOX (h12/15-LOX) stood at 92%.
At h12/15-LOX, `COCCOCCOC(=O)Nc1oc(-c2cc(Cl)cc(Cl)c2Cl)nc1C#N` [Compound 60, 2-(2-Methoxyethoxy)ethyl (4-cyano-2-(2,3,5-trichlorophenyl)oxazol-5-yl)carbamate] gave a pIC50 below 4.70.
On h12/15-LOX, `N#Cc1nc(-c2cc(Cl)cc(Cl)c2Cl)oc1NCCOCCOCCOc1ccncc1` [Compound 100, 5-((2-(2-(2-(Pyridin-4-yloxy)ethoxy)ethoxy)ethyl)amino)-2-(2,3,5-trichlorophenyl)oxazole-4-carbonitrile] had a pIC50 below 4.70.
On to `CNc1oc(-c2cc(C#N)cc(Cl)c2Cl)nc1C#N` [Compound 13, 2-(2,3-Dichloro-5-cyanophenyl)-5-(methylamino)oxazole-4-carbonitrile], for which the pIC50 on h12/15-LOX is 5.96. The Emax on h12/15-LOX (h12/15-LOX) worked out at 100%.
For `COCCNc1oc(-c2cc(Cl)cc(C(F)(F)F)c2Cl)nc1C#N` [Compound 42, 2-(2,5-Dichloro-3-(trifluoromethyl)phenyl)-5-((2-methoxyethyl)amino)oxazole-4-carbonitrile] the same measures were 6.46 and 75%.
As for `N#Cc1nc(-c2cc(Cl)cc(Cl)c2Cl)oc1NCCOCCNCCF` [Compound 93], the Emax on h12/15-LOX (h12/15-LOX) was determined as 98%.
